Coloration data for five compounds are collected here from US7932050B2, “Enzymatic substrates derived from phenoxazinone and their use as developers in detection of microorganisms with peptidase activity” (bioMerieux, priority 2004, dated 2011).

Holding throughout (format): cell-based
The test system of experiment [1] is Acinetobacter baumannii ATCC 19606. Description: Detection of β-alanine peptidase activity (example 9), colony coloration. As to conditions: between 24 and 48 h of incubation; strain ATCC 19606.
The subject of experiment [2] is Burkholderia cepacia GIII LMG 18832. Described as above. As to conditions: between 24 and 48 h of incubation; strain LMG 18832.
For experiment [3], the system named is Acinetobacter calcoaceticus. The description is as above. As to conditions: between 24 and 48 h of incubation.
The test system of experiment [4] is Ralstonia basilensis. As to conditions: between 24 and 48 h of incubation.
The subject of experiment [5] is Burkholderia cepacia GI LMG1222. Description: Detection of β-alanine peptidase activity (example 9), colony coloration. The conditions noted are these: between 24 and 48 h of incubation; strain LMG1222.
The subject of experiment [6] is Pseudomonas aeruginosa. The experiment is described as above. As to conditions: between 24 and 48 h of incubation, no accession No.
Experiment [7] has as its system Pseudomonas fragilis NCIMB 8987. The experiment is described as above. The conditions noted are these: between 24 and 48 h of incubation; strain NCIMB 8987.
For experiment [8], the system named is Pseudomonas maltophilia. The description is as above. The conditions noted are these: between 24 and 48 h of incubation.
The test system of experiment [9] is Ralstonia taiwanensis. As to conditions: between 24 and 48 h of incubation.
The test system of experiment [10] is Acinetobacter baumannii ATCC 19606. The experiment in a line: Detection of pyroglutamyl peptidase activity (example 10), colony coloration. As to conditions: between 24 and 48 h of incubation; strain ATCC 19606.
Experiment [11] relates to Acinetobacter calcoaceticus. The description is as above. The conditions noted are these: between 24 and 48 h of incubation.
Experiment [12] deals with Ralstonia basilensis. As to conditions: between 24 and 48 h of incubation. This is another data set of the same source.
Experiment [13] relates to Pseudomonas fluorescens. The experiment in a line: Detection of pyroglutamyl peptidase activity (example 10), colony coloration. The conditions noted are these: between 24 and 48 h of incubation.
Experiment [14] has as its system Ralstonia taiwanensis. As to conditions: between 24 and 48 h of incubation. The source holds these as a separate data set.
The test system of experiment [15] is Burkholderia cepacia GIII LMG 18832. Description: Detection of pyroglutamyl peptidase activity (example 10), colony coloration. As to conditions: between 24 and 48 h of incubation; strain LMG 18832.
Experiment [16] deals with Burkholderia cepacia GI LMG1222. The experiment is described as above. The conditions noted are these: between 24 and 48 h of incubation; strain LMG1222.
Experiment [17] has as its system Pseudomonas aeruginosa. The description is as above. As to conditions: between 24 and 48 h of incubation, no accession No.
The subject of experiment [18] is Pseudomonas maltophilia. Described as above. As to conditions: between 24 and 48 h of incubation.
For experiment [19], the system named is Pseudomonas fragilis NCIMB 8987. Described as above. The conditions noted are these: between 24 and 48 h of incubation; strain NCIMB 8987.
The test system of experiment [20] is Pseudomonas fluorescens. Description: Detection of β-alanine peptidase activity (example 11), colony coloration. The conditions noted are these: between 24 and 48 h of incubation; Applicant's collection.
Experiment [21] deals with Pseudomonas aeruginosa. Described as above. The conditions noted are these: between 24 and 48 h of incubation.
The next experiment deals with Escherichia coli. Described as above. As to conditions: between 24 and 48 h of incubation; Applicant's collection.
The subject of experiment [22] is Burkholderia Gladioli LGM 6880. Described as above. As to conditions: between 24 and 48 h of incubation; strain LGM 6880.
The test system of a further experiment is Pseudomonas putida. Described as above. As to conditions: between 24 and 48 h of incubation; Applicant's collection.
The subject of experiment [23] is Burkholderia cepacia LMG 18941. Described as above. The conditions noted are these: between 24 and 48 h of incubation; strain LMG 18941.
Setting [24] is: first P. aeruginosa strain of table 2 (r6).
Where [25] appears, read: fourth P. aeruginosa strain of table 2 (r12).
Where [26] appears, read: second P. aeruginosa strain of table 2 (r8).
Where [27] appears, read: third P. aeruginosa strain of table 2 (r10).
The mark [28] stands for this setting: first P. aeruginosa strain of table 3 (r6).
Where [29] appears, read: second P. aeruginosa strain of table 3 (r8).
The mark [30] stands for this setting: third P. aeruginosa strain of table 3 (r10).

Structures are written as SMILES. Where two headings read alike, the source gives them in different places.

`CCCCCc1c2nc3ccc(NC(=O)CCNC(=O)OC(C)(C)C)cc3oc-2cc(=O)c1Cl` [Chlorinated beta-alanyl compound, 7-N—(N′-t-butoxycarbonyl-β-alanyl)amino-2-chloro-1-pentylphenoxazin-3-one]: the coloration entry in experiment [1] is listed as “colorless”; in [2] it was “yellow”; in [3], “colorless”; with Ralstonia basilensis [4] it was “colorless”; in experiment [5], “yellow”; in the experiment with Pseudomonas aeruginosa [6] (setting [24]), “purple”. Moreover, the coloration entry is “purple” in the experiment with Pseudomonas aeruginosa [6] (setting [25]); “pale purple” in the experiment with Pseudomonas aeruginosa [6] (setting [26]); “pale purple” in the experiment on Pseudomonas aeruginosa [6] (setting [27]); “colorless” in [7]; “colorless” with Pseudomonas maltophilia [8]; “colorless” in the experiment on Ralstonia taiwanensis [9].
Regarding `CCCCCc1c2nc3ccc(NC(=O)[C@@H]4CCC(=O)N4)cc3oc-2cc(=O)c1Cl` [Chlorinated pyroglutamyl compound, 7-N-(L-pyroglutamyl)amino-2-chloro-1-pentylphenoxazin-3-one], the coloration entry in experiment [10] was “colorless”; in experiment [11] it was “colorless”; in the experiment on Ralstonia basilensis [12], “colorless”; with Pseudomonas fluorescens [13], “colorless”; in the experiment with Ralstonia taiwanensis [14], “colorless”; in experiment [15], “yellow”. Also, the coloration entry in experiment [16] is “yellow”; with Pseudomonas aeruginosa [17] (setting [28]) it was “purple”; in the experiment on Pseudomonas aeruginosa [17] (setting [29]), “purple”; in the experiment with Pseudomonas aeruginosa [17] (setting [30]) it was “purple”; in the experiment on Pseudomonas maltophilia [18], “colorless”; in experiment [19], “colorless”.
On to `CCCCCc1cc(=O)cc2oc3cc(NC(=O)CCNC(=O)OC(C)(C)C)ccc3nc1-2` [Nonchlorinated beta-alanyl compound, 7-N—(N′-t-butoxycarbonyl-β-alanyl)amino-1-pentylphenoxazin-3-one], for which the coloration result in experiment [1] was “colorless”; in experiment [2], “yellow”; in [3] it was “colorless”; in the experiment on Ralstonia basilensis [4], “colorless”; in [5] it was “yellow”; in the experiment on Pseudomonas aeruginosa [6] (setting [24]), “purple”. Also, the coloration result with Pseudomonas aeruginosa [6] (setting [25]) is on record as “purple”; in the experiment on Pseudomonas aeruginosa [6] (setting [26]) it was “purple”; in the experiment on Pseudomonas aeruginosa [6] (setting [27]), “purple”; in [7] it was “colorless”; in the experiment with Pseudomonas maltophilia [8], “colorless”; in the experiment on Ralstonia taiwanensis [9], “colorless”.
On to `CCCCCc1cc(=O)cc2oc3cc(NC(=O)[C@@H]4CCC(=O)N4)ccc3nc1-2` [Nonchlorinated pyroglutamyl compound, 7-N-(L-pyroglutamyl)amino-1-pentylphenoxazin-3-one], for which the coloration entry in experiment [10] is “colorless”; in [11], “colorless”; in the experiment with Ralstonia basilensis [12], “colorless”; with Pseudomonas fluorescens [13], “colorless”; with Ralstonia taiwanensis [14] it was “colorless”; in experiment [15], “yellow”. Besides, the coloration entry in [16] is “yellow”; in the experiment on Pseudomonas aeruginosa [17] (setting [28]) it was “purple”; in the experiment on Pseudomonas aeruginosa [17] (setting [29]), “purple”; in the experiment on Pseudomonas aeruginosa [17] (setting [30]) it was “purple”; in the experiment with Pseudomonas maltophilia [18], “colorless”; in experiment [19], “colorless”.
On to `Cc1c2nc3ccc(NC(=O)CCN)cc3oc-2c(C)c(=O)c1C.O=C(O)C(F)(F)F` [b-ala-TMP, 7-N-(β-Alanyl)amino-1,2,4-trimethylphenoxazin-3-one trifluoroacetate salt], for which the coloration entry is given as “colorless” in the experiment on Pseudomonas fluorescens [20]; “pink” in the experiment on Pseudomonas aeruginosa [21] (strain ATCC 9027); “orangy-” in the experiment on Pseudomonas aeruginosa [21] (strain ATCC 10145); “pink” in the experiment with Pseudomonas aeruginosa [21] (strain ATCC 27853); “orangy-” in the experiment on Pseudomonas aeruginosa [21] (strain of Applicant's collection (r9)); “colorless” with Pseudomonas aeruginosa [21] (strain of Applicant's collection (r13)). In addition, the coloration entry with Escherichia coli was “orange”; in experiment [22], “colorless”; in the experiment with Pseudomonas putida, “colorless”; in [23], “pale pink”.
